Results as given in patent US10125100B2, “Kinase inhibitors” (Respivert Limited, priority 2014, dated 2018).
In brackets after ≈: the same amount, converted by molar mass. Counter-ions that a name gives are not always drawn. Like-named read-outs stand apart in the source and are kept apart here. One block for each molecule: values may come before it.

What was measured:
[1] = Solubility in fasted-state simulated colonic fluid (FaSSCoF); assay type: physicochemical; details: for pH 6.5 FaSSCoF Solubility, Run 2 / pH 6.5 FaSSCoF Solubility, Run 1: 24 h; for solubility thermodynamic at 24 h: 25 °C, pH 6.5, fassgf or other biorelevant, thermodynamic from solid
Method: The solubilities of compounds of the invention in FaSSCoF at pH 6.5 are determined using a modification of a previously-reported procedure (Vertzoni, M., et al. Pharm. Res. 2010, 27, 2187-2196). In place of the bile salt extract employed in the original procedure (which extract is no longer available), the modified procedure uses a mixture of sodium taurochlorate (0.15 g), glycocholic acid (0.15 g), ursodeoxycholic acid (0.05 g), cholic acid (0.05 g), and glycodeoxycholic acid (0.05 g). These five bile acids are ground together with a mortar and pestle to produce a fine white powder that is incorporated into the FaSSCoF, as outlined below.
Tris(hydroxymethyl)aminomethane (Tris; 0.275 g) and maleic acid (0.44 g) are dissolved in water (35 mL) to give a solution whose pH is adjusted to 6.5 by treatment with 0.5M NaOH (ca. 12 mL). The solution is then made up to 50 mL with water. A portion of this Tris/maleate buffer solution (ca. 25 mL) is added to a 0.5 L round-bottomed flask, before being treated with 0.00565 g of the bile acid mixture described above. Solutions of phosphatidylcholine (0.0111 g) in DCM (0.15 mL) and palmitic acid (0.0013 g) in DCM (0.15 mL) are added, then the organic solvent is evaporated off under reduced pressure at 40° C. until a clear solution, with no perceptible DCM odour, is achieved. The volume of the evaporated solution is adjusted to 50 mL by addition of the remainder of Tris/maleate buffer, then BSA (0.115 g) is added, before being dissolved by gentle agitation.
Test compounds are suspended in the pH 6.5 FaSSCoF medium to give a maximum final concentration of 2-10 mg/mL. The suspensions are equilibrated at 25° C. for 24 h, before being filtered through a glass fibre C filter. The filtrates are then diluted as appropriate for injection and quantification by HPLC with reference to a standard. Different volumes of the standard, diluted and undiluted sample solutions are injected and the solubilities are calculated using the peak areas determined by integration of the peak found at the same retention time as the principal peak in the standard injection.

[2] = Stability of pharmaceutical formulations; assay type: physicochemical; details: for Original Purity: 1 mg/mL solution, before storage; for Purity at week n = 1: 1 week; for Purity at week n = 2: 2 weeks; for Purity at week n = 4: 4 weeks
Method: The samples were sonicated to achieve clear solutions having the following properties: Osmolality (mOsm/kg): 310 (Na), 314 (HCl); pH: 7.00 (Na), 7.05 (HCl). 0.5 mL of the stock solutions were diluted to 1 mL with 20% DMSO in water & injected for purity analysis by HPLC. The remaining stock solutions were then split into aliquots of 0.5 mL in HPLC vials, and stored at various conditions in duplicate. Samples were stored at 5 and 25° C., before being analysed by HPLC at 1, 2 and 4 weeks. Separate samples were stored at 40° C. and analysed at 4 weeks.

Jurkat cells = assay: (r) Cell cytotoxicity assay; assay type: cell-based, human; details: 24 hours
Outline: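 Jurkat cells (1×10^5/well, RPMI + 10% FBS) exposed to compound at 20, 5 or 1 μg/mL final (1.0% DMSO control) for 24 h at 37° C., 5% CO2. Then stained with 7.5 μg/mL propidium iodide for 15 min. % viability = PI-negative cells by flow cytometry, normalized to DMSO.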

[3] = Pharmacokinetics and total colon distribution after oral administration; assay type: in vivo; details: male, C57BL/6, mouse, mice, oral 5 mg/kg, dosed compound measured
Method: Studies were conducted by Sai Life Sciences (Hinjewadi, Pune, India) to investigate the systemic pharmacokinetics and total colon tissue distribution of compounds of the invention. In particular, pharmacokinetic studies were carried out in male C57BL/6 mice following a single oral administration of the compound.

[4] = blood, read-out: Mean blood concentration
[5] = total colon, read-out: total colon level

SMILES: COc1cc(Nc2cc(Oc3ccc(NC(=O)Nc4cc(C(C)(C)C)cc(NS(C)(=O)=O)c4OC)c4ccccc34)ccn2)ccc1C(=O)O [1 (sodium salt), 4-((4-((4-(3-(5-(tert-Butyl)-2-methoxy-3-(methylsulfonamido)phenyl)ureido)naphthalen-1-yl)oxy)pyridin-2-yl)amino)-2-methoxybenzoic acid]
- pH 6.5 FaSSCoF Solubility, Run 2 [1]: 0.032 mg/mL

- pH 6.5 FaSSCoF Solubility, Run 2 [1]: 0.198 mg/mL
SMILES: COc1cc(Nc2cc(Oc3ccc(NC(=O)Nc4cc(C(C)(C)C)cc(NS(C)(=O)=O)c4OC)c4ccccc34)ccn2)ccc1C(=O)NCC(=O)O [17(ar) (hydrochloride salt), 2-(4-((4-((4-(3-(5-(tert-Butyl)-2-methoxy-3-(methylsulfonamido)phenyl)ureido)naphthalen-1-yl)oxy)pyridin-2-yl)amino)-2-methoxybenzamido)acetic acid]

- pH 6.5 FaSSCoF Solubility, Run 2 [1]: 0.028 mg/mL
SMILES: COc1cc(Nc2cc(Oc3ccc(NC(=O)Nc4cc(C(C)(C)C)cc(NS(C)(=O)=O)c4OC)c4ccccc34)ccn2)ccc1C(=O)NCCC(=O)O [17(ay) (hydrochloride salt), 3-(4-((4-((4-(3-(5-(tert-Butyl)-2-methoxy-3-(methylsulfonamido)phenyl)ureido)-naphthalen-1-yl)oxy)pyridin-2-yl)amino)-2-methoxybenzamido)propanoic acid]

- pH 6.5 FaSSCoF Solubility, Run 2 [1]: 0.049 mg/mL
SMILES: COc1cc(Nc2cc(Oc3ccc(NC(=O)Nc4cc(C(C)(C)C)cc(NS(C)(=O)=O)c4OC)c4ccccc34)ccn2)ccc1C(=O)NCCNC(=O)CCC(=O)O [17(cd) (hydrochloride salt), 4-((2-(4-((4-((4-(3-(5-(tert-Butyl)-2-methoxy-3-(methylsulfonamido)phenyl)ureido)-naphthalen-1-yl)oxy)pyridin-2-yl)amino)-2-methoxybenzamido)ethyl)amino)-4-oxobutanoic acid]

- solubility thermodynamic at 24 h [1]: 6 µg/mL (≈ 7.1 µM)
- pH 6.5 FaSSCoF Solubility, Run 2 [1]: 0.006 mg/mL
SMILES: COc1cc(Nc2cc(Oc3ccc(NC(=O)Nc4cc(C(C)(C)C)cc(NS(C)(=O)=O)c4OC)c4ccccc34)ccn2)ccc1C(=O)N1C[C@H](O)[C@@H](O)[C@H](O)[C@H]1CO [17(ci), N-(5-(tert-Butyl)-2-methoxy-3-(3-(4-((2-((3-methoxy-4-((2R,3R,4R,5S)-3,4,5-trihydroxy-2-(hydroxymethyl)piperidine-1-carbonyl)phenyl)amino)pyridin-4-yl)oxy)naphthalen-1-yl)ureido)phenyl)methanesulfonamide]

- solubility thermodynamic at 24 h [1]: > 4700 µg/mL
- pH 6.5 FaSSCoF Solubility, Run 2 [1]: >4.7 mg/mL
SMILES: COc1cc(Nc2cc(Oc3ccc(NC(=O)Nc4cc(C(C)(C)C)cc(NS(C)(=O)=O)c4OC)c4ccccc34)ccn2)ccc1C(=O)NCCOCCOCCOP(=O)(O)O [19 (sodium salt), 2-(2-(2-(4-((4-((4-(3-(5-(tert-Butyl)-2-methoxy-3-(methylsulfonamido)phenyl)ureido)-naphthalen-1-yl)oxy)pyridin-2-yl)amino)-2-methoxybenzamido)ethoxy)ethoxy)ethyl dihydrogen phosphate]

SMILES: COc1cc(Nc2cc(Oc3ccc(NC(=O)Nc4cc(C(C)(C)C)cc(NS(C)(=O)=O)c4OC)c4ccccc34)ccn2)ccc1P(C)(=O)O [44 (ammonium salt), (4-((4-((4-(3-(5-(tert-Butyl)-2-methoxy-3-(methylsulfonamido)phenyl)ureido)naphthalen-1-yl)oxy)pyridin-2-yl)amino)-2-methoxyphenyl)(methyl)phosphinic acid]
- pH 6.5 FaSSCoF Solubility, Run 1 [1]: >2.4 mg/mL
- pH 6.5 FaSSCoF Solubility, Run 2 [1]: >2.4 mg/mL

SMILES: COc1cc(Nc2cc(Oc3ccc(NC(=O)Nc4cc(C(C)(C)C)cc(NS(C)(=O)=O)c4OC)c4ccccc34)ccn2)ccc1P(C)(=O)O [44 (sodium salt), (4-((4-((4-(3-(5-(tert-Butyl)-2-methoxy-3-(methylsulfonamido)phenyl)ureido)naphthalen-1-yl)oxy)pyridin-2-yl)amino)-2-methoxyphenyl)(methyl)phosphinic acid]
- pH 6.5 FaSSCoF Solubility, Run 1 [1]: >7.6 mg/mL
- pH 6.5 FaSSCoF Solubility, Run 2 [1]: >5.5 mg/mL

SMILES: COc1cc(Nc2cc(Oc3ccc(NC(=O)Nc4cc(C(C)(C)C)cc(NS(C)(=O)=O)c4OC)c4ccccc34)ccn2)ccc1C(=O)O.Cl [Example 1, hydrochloride salt]
- Original Purity ([2]; Sample 1): 98.1%
- Purity at week n = 1 ([2]; Sample 1, 5° C.): 98.2%
- Purity at week n = 2 ([2]; Sample 1, 5° C.): 98.1%
- Purity at week n = 4 ([2]; Sample 1, 5° C.): 97.9%
- Purity at week n = 1 ([2]; Sample 1, 25° C.): 98.0%
- Purity at week n = 2 ([2]; Sample 1, 25° C.): 97.7%
- Purity at week n = 4 ([2]; Sample 1, 25° C.): 97.2%
- Purity at week n = 4 ([2]; Sample 1, 40° C.): 79.2%
- Original Purity ([2]; Sample 2): 98.1%
- Purity at week n = 1 ([2]; Sample 2, 5° C.): 98.2%
- Purity at week n = 2 ([2]; Sample 2, 5° C.): 98.0%
- Purity at week n = 4 ([2]; Sample 2, 5° C.): 98.0%
- Purity at week n = 1 ([2]; Sample 2, 25° C.): 98.0%
- Purity at week n = 2 ([2]; Sample 2, 25° C.): 97.6%
- Purity at week n = 4 ([2]; Sample 2, 25° C.): 97.4%
- Purity at week n = 4 ([2]; Sample 2, 40° C.): 80.4%

SMILES: COc1cc(Nc2cc(Oc3ccc(NC(=O)Nc4cc(C(C)(C)C)cc(NS(C)(=O)=O)c4OC)c4ccccc34)ccn2)ccc1C(=O)O [Example 1, sodium salt]
- Purity at week n = 4 ([2]; Sample 1, 40° C.): 76.0%

- concentration at 0.5 h [3, 4]: 0 ng/mL
- concentration at 1 h [3, 4]: 0 ng/mL
- concentration at 2 h [3, 4]: 0 ng/mL
- concentration at 4 h [3, 4]: 0 ng/mL
- concentration at 6 h [3, 4]: 0 ng/mL
- concentration at 8 h [3, 4]: 0 ng/mL
- concentration at 12 h [3, 4]: 0 ng/mL
- concentration at 24 h [3, 4]: 0 ng/mL
- concentration at 0.5 h [3, 5]: 0 ng/g
- concentration at 1 h [3, 5]: 0 ng/g
- concentration at 2 h [3, 5]: 0 ng/g
- concentration at 4 h [3, 5]: 0 ng/g
- concentration at 6 h [3, 5]: 0 ng/g
- concentration at 8 h [3, 5]: 0 ng/g
- concentration at 12 h [3, 5]: 0 ng/g
- concentration at 24 h [3, 5]: 0 ng/g
SMILES: COc1cc(Nc2cc(Oc3ccc(NC(=O)Nc4cc(C(C)(C)C)cc(NS(C)(=O)=O)c4OC)c4ccccc34)ccn2)ccc1C(=O)NCCOCCOCCOP(=O)(O)O [Example 19, 2-(2-(2-(4-((4-((4-(3-(5-(tert-Butyl)-2-methoxy-3-(methylsulfonamido)phenyl)ureido)-naphthalen-1-yl)oxy)pyridin-2-yl)amino)-2-methoxybenzamido)ethoxy)ethoxy)ethyl dihydrogen phosphate]
- % Viability at 1 μg/mL (Jurkat cells; 1 μg/mL): 105.0%
- % Viability at 5 μg/mL (Jurkat cells; 5 μg/mL): 106.0%
- % Viability at 20 μg/mL (Jurkat cells; 20 μg/mL): 100.9%
